From patent US20230114728A1 (Venatorx Pharmaceuticals, Inc., priority 2019, published 2023)
In brackets after ≈: the same amount, converted by molar mass.

Key:
[1] = Bocillin-FL fluorescence polarization competition binding assay, A. baumannii PBP3; details: fluorescence polarization competition binding assay using Bocillin-FL; column 3; read-out: 4. baumannii PBP1a Potency
Method in brief: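 Fluorescence polarization (ex 490/em 520 nm) competition of inhibitors against Bocillin-FL at 0.1 μM, read up to 60 min. Final PBP levels: E. coli PBP3 1.5 μM; A. baumannii PBP2 2.5 μM, PBP3 0.2 μM in Tris pH 8.0/NaCl/glycerol/Tween 20; N. gonorrhoeae PBP2 […] in Hepes pH 8.0/NaCl/glycerol. EC50 = concentration halving PBP-bound Bocillin-FL.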

N. gonorrhoeae WHO G = assay: Liquid broth MIC in Fastidious broth; format: cell-based; details: Neisseria gonorrhoeae; N. gonorrhoeae strain WHO G; Fastidious broth; read-out: Minimum Inhibitory Concentration, N. gonorrhoeae WHO G
Method in brief: (§1)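 Colonies were swabbed from chocolate agar after 24 h growth and standardised by optical density at 600 nm. Compounds were serially diluted twofold in Fastidious broth, and bacteria added to give 5×10^5 CFU/mL. After about 24 h at 36 °C in 5% CO2, the lowest concentration allowing under 10% growth was taken as MIC.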

N. gonorrhoeae H041 = assay: Liquid broth MIC in Fastidious broth; format: cell-based; details: Neisseria gonorrhoeae, H041, read-out: Minimum Inhibitory Concentration, N. gonorrhoeae H041
Method in brief: (§2)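 MIC = lowest concentration giving <10% growth relative to untreated wells, scored by eye after ~24 h at 36 °C, 5% CO2. Strains carry mosaic PBP2; inoculum 5×10^5 CFU/mL in Fastidious broth with 2-fold serial compound dilutions.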

N. gonorrhoeae WHO K = assay: Liquid broth MIC in Fastidious broth; format: cell-based; details: Neisseria gonorrhoeae, read-out: Minimum Inhibitory Concentration, N. gonorrhoeae WHO K
Method in brief: as §2

N. gonorrhoeae FA1090 = assay: Liquid broth MIC in Fastidious broth; format: cell-based; details: Neisseria gonorrhoeae; N. gonorrhoeae strain FA1090; Fastidious broth; read-out: Minimum Inhibitory Concentration, N. gonorrhoeae FA1090
Method in brief: as §1

N. gonorrhoeae WHO L = assay: Liquid broth MIC in Fastidious broth; format: cell-based; details: Neisseria gonorrhoeae; N. gonorrhoeae strain WHO L; Fastidious broth; read-out: Minimum Inhibitory Concentration, N. gonorrhoeae WHO L
Method in brief: as §1

N. gonorrhoeae WHO Q = assay: Liquid broth MIC in Fastidious broth; format: cell-based; details: Neisseria gonorrhoeae, read-out: Minimum Inhibitory Concentration, N. gonorrhoeae WHO Q
Method in brief: as §2

[2] = test system: N. gonorrhoeae ATCC 49226; assay: Liquid broth MIC in Fastidious broth; format: cell-based; details: Neisseria gonorrhoeae, ATCC49226; N. gonorrhoeae strain ATCC 49226; Fastidious broth; read-out: Minimum Inhibitory Concentration, N. gonorrhoeae ATCC 49226
Method in brief: as §1

N. gonorrhoeae WHO Z = assay: Liquid broth MIC in Fastidious broth; format: cell-based; details: Neisseria gonorrhoeae, read-out: Minimum Inhibitory Concentration, N. gonorrhoeae WHO Z
Method in brief: as §2

| Structure (SMILES) | EC50 [1] [µM] | MIC (N. gonorrhoeae WHO G) [µg/mL] | MIC (N. gonorrhoeae H041) [µg/mL] | MIC (N. gonorrhoeae WHO K) [µg/mL] | MIC (N. gonorrhoeae FA1090) [µg/mL] | MIC (N. gonorrhoeae WHO L) [µg/mL] | MIC (N. gonorrhoeae WHO Q) [µg/mL] | MIC [2] [µg/mL] | MIC (N. gonorrhoeae WHO Z) [µg/mL] |
| --- | --- | --- | --- | --- | --- | --- | --- | --- | --- |
| NCCN1CCN(C(=O)N[C@H](C(=O)N[C@H]2Cc3cccc(C(=O)O)c3OB2O)c2ccc(O)cc2Cl)C(=O)C1=O (single isomer, unassigned) [Example 85] | > 100 | > 64 | > 64 | > 64 | 4 to 8 (≈ 6.97 to 13.9 µM) | > 64 | > 64 | > 64 | > 64 |
| CCN1CCN(C(=O)NC(C(=O)N[C@H]2Cc3ccc(F)c(C(=O)O)c3OB2O)c2ccc(C(=O)O)cc2)C(=O)C1=O (stereo partly drawn) [Example 15, (3R)-3-(2-(4-carboxyphenyl)-2-(4-ethyl-2,3-dioxopiperazine-1-carboxamido)acetamido)-7-fluoro-2-hydroxy-3,4-dihydro-2H-benzo[e][1,2]oxaborinine-8-carboxylic acid] | > 100 | 4 to 8 (≈ 7.01 to 14 µM) | 4 to 8 (≈ 7.01 to 14 µM) | 4 to 8 (≈ 7.01 to 14 µM) | 0.25 to 0.5 (≈ 0.438 to 0.877 µM) | > 64 |  | 4 to 8 (≈ 7.01 to 14 µM) | 1 to 2 (≈ 1.75 to 3.51 µM) |
| NCCN1CCN(C(=O)N[C@@H](C(=O)N[C@H]2Cc3cccc(C(=O)O)c3OB2O)c2ccc(O)cc2Cl)C(=O)C1=O (single isomer, unassigned) [Example 86] | 10 to 30 | 4 to 8 (≈ 6.97 to 13.9 µM) | > 64 | > 64 | 1 to 2 (≈ 1.74 to 3.49 µM) | > 64 | > 64 | > 64 | > 64 |
| CCN1CCN(C(=O)NC(C(=O)N[C@H]2Cc3cccc(C(=O)O)c3OB2O)c2ccc(O)c(NC(=O)c3ccc(O)c(O)c3Cl)c2)C(=O)C1=O (stereo partly drawn) [Example 74, (3R)-3-(2-(3-(2-chloro-3,4-dihydroxybenzamido)-4-hydroxyphenyl)-2-(4-ethyl-2,3-dioxopiperazine-1-carboxamido)acetamido)-2-hydroxy-3,4-dihydro-2H-benzo[e][1,2]oxaborinine-8-carboxylic acid] | < 10 | 16 to 32 (≈ 22.5 to 45.1 µM) | > 64 | > 64 | 1 to 2 (≈ 1.41 to 2.82 µM) | > 64 | > 64 | > 64 | > 64 |
| CCN1CCN(C(=O)NC(C(=O)N[C@H]2Cc3cccc(C(=O)O)c3OB2O)c2cccc(NC(=O)c3ccc(O)c(O)c3Cl)c2)C(=O)C1=O (stereo partly drawn) [Example 73, (3R)-3-(2-(3-(2-chloro-3,4-dihydroxybenzamido)phenyl)-2-(4-ethyl-2,3-dioxopiperazine-1-carboxamido)acetamido)-2-hydroxy-3,4-dihydro-2H-benzo[e][1,2]oxaborinine-8-carboxylic acid] | < 10 | 16 to 32 (≈ 23.1 to 46.1 µM) | > 64 | > 64 | 1 to 2 (≈ 1.44 to 2.88 µM) | > 64 | > 64 | > 64 | > 64 |
| CS(=O)(=O)N1CCN(C(=O)NC(C(=O)N[C@H]2Cc3ccc(F)c(C(=O)O)c3OB2O)c2ccc(O)c(O)c2Cl)C1=O (stereo partly drawn) [Example 23, (3R)-3-(2-(2-chloro-3,4-dihydroxyphenyl)-2-(3-(methylsulfonyl)-2-oxoimidazolidine-1-carboxamido)acetamido)-7-fluoro-2-hydroxy-3,4-dihydro-2H-benzo[e][1,2]oxaborinine-8-carboxylic acid] | 30 to 100 | 16 to 32 (≈ 26 to 52.1 µM) | > 64 | > 64 | 4 to 8 (≈ 6.51 to 13 µM) | > 64 |  | > 64 |  |
| CCN1CCN(C(=O)NC(C(=O)N[C@H]2Cc3cccc(C(=O)O)c3OB2O)c2ccc(C(=O)O)c(F)c2)C(=O)C1=O (stereo partly drawn) [Example 31, (3R)-3-(2-(4-carboxy-3-fluorophenyl)-2-(4-ethyl-2,3-dioxopiperazine-1-carboxamido)acetamido)-2-hydroxy-3,4-dihydro-2H-benzo[e][1,2]oxaborinine-8-carboxylic acid] | < 10 | 1 to 2 (≈ 1.75 to 3.51 µM) | 4 to 8 (≈ 7.01 to 14 µM) | 4 to 8 (≈ 7.01 to 14 µM) | < 0.125 | 4 to 8 (≈ 7.01 to 14 µM) |  | 1 to 2 (≈ 1.75 to 3.51 µM) | 1 to 2 (≈ 1.75 to 3.51 µM) |
